The supplement of paper PMC10307832

Legend:
Experiment in all cases: relative viability (nuclei count vs DMSO), 5 days (fraction); higher = more cells survive
KIN001-266 + Crizotinib = compound: CCN1CCC(CC1)N2C=C(N=N2)CNC3=CC4=C(C(=CN=C4C(=C3)Cl)C#N)NC5=CC(=C(C=C5)F)Cl [KIN001-266] + C[C@@H](Oc1cc(-c2cnn(C3CCNCC3)c2)cnc1N)c1c(Cl)ccc(F)c1Cl [Crizotinib] (partner 1 µM)
Summary of the method: (§1)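 A single step with final 0.05% Triton X-100, 1% formaldehyde and 1 ug/ml Hoechst fixed the cells and stained nuclei 5 days after treatment. Lung cancer cell lines in 1536-well plates had been treated by pin tool the day after seeding with one drug alone or a fixed anchor-drug dose plus five library-drug doses (not always all listed) in √10 steps, and nuclei were counted on 4× images. Relative viability is the ratio of nuclei in treated wells to nuclei in vehicle wells, taken as the median of duplicate plates.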

KIN001-266 + Vorinostat = compound: CCN1CCC(CC1)N2C=C(N=N2)CNC3=CC4=C(C(=CN=C4C(=C3)Cl)C#N)NC5=CC(=C(C=C5)F)Cl [KIN001-266] + O=C(CCCCCCC(=O)Nc1ccccc1)NO [Vorinostat] (partner 1 µM)
Summary of the method: as §1

KIN001-266 + Pictilisib = compound: CCN1CCC(CC1)N2C=C(N=N2)CNC3=CC4=C(C(=CN=C4C(=C3)Cl)C#N)NC5=CC(=C(C=C5)F)Cl [KIN001-266] + CS(=O)(=O)N1CCN(Cc2cc3nc(-c4cccc5[nH]ncc45)nc(N4CCOCC4)c3s2)CC1 [Pictilisib] (partner 1 µM)
Summary of the method: as §1

KIN001-266 + Dasatinib = compound: CCN1CCC(CC1)N2C=C(N=N2)CNC3=CC4=C(C(=CN=C4C(=C3)Cl)C#N)NC5=CC(=C(C=C5)F)Cl [KIN001-266] + Cc1nc(Nc2ncc(C(=O)Nc3c(C)cccc3Cl)s2)cc(N2CCN(CCO)CC2)n1 [Dasatinib] (partner 0.075 µM)
Summary of the method: as §1

Cell Line | relative viability (KIN001-266 + Crizotinib; first compound 0.08 µM) | relative viability (KIN001-266 + Crizotinib; first compound 0.253 µM) | relative viability (KIN001-266 + Crizotinib; first compound 0.8 µM) | relative viability (KIN001-266 + Crizotinib; first compound 2.53 µM) | relative viability (KIN001-266 + Crizotinib; first compound 8 µM) | relative viability (KIN001-266 + Vorinostat; first compound 0.08 µM) | relative viability (KIN001-266 + Vorinostat; first compound 0.253 µM) | relative viability (KIN001-266 + Vorinostat; first compound 0.8 µM) | relative viability (KIN001-266 + Vorinostat; first compound 2.53 µM) | relative viability (KIN001-266 + Vorinostat; first compound 8 µM) | relative viability (KIN001-266 + Pictilisib; first compound 0.08 µM) | relative viability (KIN001-266 + Pictilisib; first compound 0.253 µM) | relative viability (KIN001-266 + Pictilisib; first compound 0.8 µM) | relative viability (KIN001-266 + Pictilisib; first compound 2.53 µM) | relative viability (KIN001-266 + Pictilisib; first compound 8 µM) | relative viability (KIN001-266 + Dasatinib; first compound 0.08 µM) | relative viability (KIN001-266 + Dasatinib; first compound 0.253 µM) | relative viability (KIN001-266 + Dasatinib; first compound 0.8 µM) | relative viability (KIN001-266 + Dasatinib; first compound 2.53 µM) | relative viability (KIN001-266 + Dasatinib; first compound 8 µM)
LXF-289 | 0.819 | 0.801 | 0.77 | 0.826 | 0.76 | 0.752 | 0.79 | 0.734 | 0.814 | 0.884 | 0.791 | 0.786 | 0.755 | 0.767 | 0.799 | 0.24 | 0.193 | 0.232 | 0.261 | 0.203
NCI-H23 | 0.583 | 0.523 | 0.41 | 0.496 | 0.448 | 0.7 | 0.523 | 0.667 | 0.584 | 0.551 | 0.494 | 0.557 | 0.458 | 0.351 | 0.469 | 0.867 | 0.86 | 0.917 | 0.683 | 0.85
NCI-H322M | 0.796 | 0.968 | 0.957 | 0.819 | 0.843 | 0.877 | 0.91 | 0.848 | 0.758 | 0.788 | 0.593 | 0.713 | 0.451 | 0.456 | 0.484 | 0.272 | 0.27 | 0.265 | 0.238 | 0.242
NCI-H358 | 0.537 | 0.794 | 0.656 | 0.454 | 0.268 | 0.663 | 0.634 | 0.759 | 0.611 | 0.262 | 0.382 | 0.355 | 0.343 | 0.3 | 0.316 | 0.148 | 0.171 | 0.173 | 0.137 | 0.116
NCI-H441 | 0.86 | 0.874 | 0.756 | 0.775 | 0.665 | 0.968 | 0.765 | 0.58 | 0.617 | 0.584 | 0.559 | 0.381 | 0.481 | 0.459 | 0.415 | 0.655 | 0.836 | 0.64 | 0.658 | 0.362
NCI-H460 | 1.01 | 0.872 | 1.12 | 0.808 | 0.67 | 0.725 | 0.697 | 0.735 | 0.649 | 0.671 | 0.5 | 0.339 | 0.308 | 0.355 | 0.302 | 0.659 | 0.513 | 0.531 | 0.45 | 0.496
NCI-H520 | 0.719 | 0.675 | 0.809 | 0.742 | 0.747 | 0.659 | 0.71 | 0.838 | 0.673 | 0.452 | 0.311 | 0.242 | 0.289 | 0.237 | 0.286 | 0.209 | 0.208 | 0.187 | 0.168 | 0.194
NCI-H596 | 0.989 | 1.21 | 0.895 | 1.08 | 0.925 | 0.745 | 0.599 | 0.682 | 0.636 | 0.558 | 0.407 | 0.401 | 0.385 | 0.4 | 0.38 | 0.607 | 0.586 | 0.539 | 0.583 | 0.63
NCI-H647 | 1.1 | 1.1 | 1.05 | 1.15 | 0.825 | 0.562 | 0.631 | 0.921 | 0.761 | 0.508 | 0.461 | 0.405 | 0.491 | 0.282 | 0.414 | 0.249 | 0.268 | 0.181 | 0.152 | 0.15
NCI-H650 | 0.703 | 0.752 | 0.741 | 0.797 | 0.71 | 0.321 | 0.558 | 0.505 | 0.455 | 0.598 | 0.924 | 0.899 | 0.917 | 0.921 | 0.908 | 0.609 | 0.531 | 0.455 | 0.451 | 0.517
NCI-H661 | 1.1 | 0.959 |  |  | 0.887 | 0.776 | 0.765 | 0.781 | 0.771 | 0.78 | 0.43 | 0.412 | 0.433 | 0.363 | 0.568 | 0.897 | 1.01 | 0.847 | 0.894 | 0.657
NCI-H727 | 0.79 | 0.812 | 0.753 | 0.825 | 0.405 | 1.13 | 1.29 | 1.31 | 1.08 | 1.14 | 0.389 | 0.351 | 0.327 | 0.264 | 0.304 | 0.473 | 0.468 | 0.323 | 0.342 | 0.261
NCI-H838 | 0.873 | 0.849 | 0.965 | 0.844 | 0.689 | 0.714 | 0.775 | 0.697 | 0.626 | 0.515 | 0.521 | 0.423 | 0.515 | 0.304 | 0.238 | 0.275 | 0.267 | 0.338 | 0.26 | 0.282
NCI-H1355 | 1.12 | 1.04 | 1.09 | 0.966 | 0.939 | 0.615 | 0.65 | 0.636 | 0.631 | 0.62 | 0.481 | 0.408 | 0.399 | 0.303 | 0.378 | 0.734 | 0.7 | 0.663 | 0.691 | 0.662
NCI-H1437 | 0.896 | 0.973 | 0.924 | 0.891 | 0.779 | 0.931 | 0.841 | 0.797 | 0.841 | 0.572 | 0.357 | 0.464 | 0.413 | 0.359 | 0.177 | 0.413 | 0.421 | 0.346 | 0.369 | 0.249
NCI-H1650 | 1.14 | 0.911 | 1.11 | 0.817 | 0.61 | 0.566 | 0.622 | 0.668 | 0.488 | 0.337 | 0.618 | 0.621 | 0.554 | 0.524 | 0.479 | 0.313 | 0.356 | 0.238 | 0.288 | 0.224
